Measurements as given in the NIST ThermoML archive (doi:10.1021/je1001413).

Conditions: Liquid, Vibrating tube method

CC(C)CCCCCCCOC(=O)c1ccccc1C(=O)OCCCCCCCC(C)C
Conditions	mass density [kg/m3]
313.15 K, 100 kPa	952.6
313.15 K, 200 kPa	952.6
313.15 K, 400 kPa	952.8
313.15 K, 620 kPa	952.9
313.15 K, 800 kPa	953
313.15 K, 1030 kPa	953.1
313.15 K, 2010 kPa	953.7
313.15 K, 3000 kPa	954.3
313.15 K, 4000 kPa	955
313.15 K, 5020 kPa	955.5
313.15 K, 5990 kPa	956.2
313.15 K, 7030 kPa	956.7
313.15 K, 8000 kPa	957.4
313.15 K, 9020 kPa	957.9
313.15 K, 10010 kPa	958.5
313.15 K, 15010 kPa	961.4
313.15 K, 20000 kPa	964.2
313.15 K, 25030 kPa	967
313.15 K, 30000 kPa	969.7
313.15 K, 35020 kPa	972.2
313.15 K, 40020 kPa	974.8
313.15 K, 45010 kPa	977.2
313.15 K, 49970 kPa	979.7
313.15 K, 55000 kPa	982
313.15 K, 59980 kPa	984.4
313.15 K, 64970 kPa	986.6
323.15 K, 100 kPa	945.4
323.15 K, 210 kPa	945.5
323.15 K, 400 kPa	945.6
323.15 K, 600 kPa	945.7
323.15 K, 800 kPa	945.9
323.15 K, 1000 kPa	946
323.15 K, 2000 kPa	946.6
323.15 K, 3030 kPa	947.2
323.15 K, 4030 kPa	947.9
323.15 K, 5020 kPa	948.5
323.15 K, 6010 kPa	949.1
323.15 K, 7000 kPa	949.7
323.15 K, 8000 kPa	950.3
323.15 K, 9010 kPa	950.9
323.15 K, 10020 kPa	951.6
323.15 K, 15000 kPa	954.5
323.15 K, 20010 kPa	957.5
323.15 K, 25030 kPa	960.3
323.15 K, 30010 kPa	963.2
323.15 K, 34970 kPa	965.8
323.15 K, 40000 kPa	968.5
323.15 K, 45000 kPa	970.9
323.15 K, 49980 kPa	973.5
323.15 K, 54980 kPa	975.8
323.15 K, 60000 kPa	978.3
323.15 K, 65000 kPa	980.6
333.15 K, 100 kPa	938.3
333.15 K, 200 kPa	938.4
333.15 K, 400 kPa	938.5
333.15 K, 630 kPa	938.7
333.15 K, 800 kPa	938.8
333.15 K, 1000 kPa	938.9
333.15 K, 2010 kPa	939.6
333.15 K, 3000 kPa	940.2
333.15 K, 4000 kPa	940.9
333.15 K, 5000 kPa	941.5
333.15 K, 6000 kPa	942.2
333.15 K, 7030 kPa	942.8
333.15 K, 7980 kPa	943.5
333.15 K, 9010 kPa	944.1
333.15 K, 10030 kPa	944.8
333.15 K, 14990 kPa	947.9
333.15 K, 20000 kPa	951
333.15 K, 25000 kPa	953.8
333.15 K, 30020 kPa	956.7
333.15 K, 34990 kPa	959.4
333.15 K, 39970 kPa	962.2
333.15 K, 45020 kPa	964.8
333.15 K, 50000 kPa	967.4
333.15 K, 55020 kPa	969.8
333.15 K, 60000 kPa	972.3
333.15 K, 65000 kPa	974.7
